Reference: the supplement of paper PMC13207355

Tests used:
Conditions in all cases: exposure time: 72 h
[1] = test system: E21 (patient-derived glioblastoma stem cells of mesenchymal subtype); assay: surviving fraction (nuclei count normalised to DMSO); higher = more cells surviving (less toxic)
[2] = test system: E34 (patient-derived glioblastoma stem cells of proneural subtype); assay: as above
[3] = test system: E28 (patient-derived glioblastoma stem cells of classical subtype); assay: as above
[4] = test system: E57 (patient-derived glioblastoma stem cells of mesenchymal subtype); assay: as above
[5] = test system: E31 (patient-derived glioblastoma stem cells of proneural subtype); assay: as above
[6] = test system: E13 (patient-derived glioblastoma stem cells of classical subtype); assay: as above
[7] = test system: FT3469 (normal neural stem cell line); assay: as above
[8] = test system: E21; assay: phenotypic distance (Euclidean, principal components) from DMSO controls (arbitrary units); higher = stronger morphological change
[9] = test system: E34; assay: as above
[10] = test system: E28; assay: as above
[11] = test system: E57; assay: as above
[12] = test system: E31; assay: as above
[13] = test system: E13; assay: as above
[14] = test system: FT3469; assay: as above
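Wherever phenotypic distance (Euclidean, principal components) from DMSO controls is given: cell Painting imaging in 384-well plates, CellProfiler features reduced to at least 20 principal components, Euclidean distance versus same-plate DMSO vehicle wells (0.1% v/v), median over six images per well.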
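Wherever surviving fraction (nuclei count normalised to DMSO) is given: nuclei counted by high-content imaging of Hoechst-stained cells in laminin-coated 384-well plates, relative to 0.1% DMSO vehicle wells, with staurosporine as cell-death control.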

CCCCCCNC(=O)n1cc(F)c(=O)[nH]c1=O [Carmofur]
Conditions	phenotypic distance	surviving fraction
[1], 4.1 nM	–	0.952
[1], 12.3 nM	–	0.91
[1], 37 nM	–	0.9
[1], 111.1 nM	–	0.957
[1], 333.3 nM	–	0.927
[1], 1000 nM	–	0.955
[1], 3000 nM	–	0.877
[2], 4.1 nM	–	0.974
[2], 12.3 nM	–	0.829
[2], 37 nM	–	0.841
[2], 111.1 nM	–	0.884
[2], 333.3 nM	–	0.928
[2], 1000 nM	–	1
[2], 3000 nM	–	0.889
[3], 4.1 nM	–	1.02
[3], 12.3 nM	–	1.19
[3], 37 nM	–	0.916
[3], 111.1 nM	–	0.949
[3], 333.3 nM	–	1.1
[3], 1000 nM	–	1.26
[3], 3000 nM	–	0.731
[4], 4.1 nM	–	0.882
[4], 12.3 nM	–	0.903
[4], 37 nM	–	0.919
[4], 111.1 nM	–	0.922
[4], 333.3 nM	–	1.02
[4], 1000 nM	–	0.954
[4], 3000 nM	–	0.85
[5], 4.1 nM	–	0.889
[5], 12.3 nM	–	0.903
[5], 37 nM	–	0.826
[5], 111.1 nM	–	0.961
[5], 333.3 nM	–	0.894
[5], 1000 nM	–	1.07
[5], 3000 nM	–	0.875
[6], 4.1 nM	–	0.99
[6], 12.3 nM	–	1.04
[6], 37 nM	–	0.909
[6], 111.1 nM	–	0.986
[6], 333.3 nM	–	0.963
[6], 1000 nM	–	1.05
[6], 3000 nM	–	0.877
[7], 4.1 nM	–	0.763
[7], 12.3 nM	–	0.995
[7], 37 nM	–	0.811
[7], 111.1 nM	–	0.832
[7], 333.3 nM	–	0.955
[7], 1000 nM	–	0.915
[7], 3000 nM	–	0.649
[8], 4.1 nM	0.484	–
[8], 12.3 nM	0.616	–
[8], 37 nM	0.756	–
[8], 111.1 nM	0.906	–
[8], 333.3 nM	0.649	–
[8], 1000 nM	0.744	–
[8], 3000 nM	1.09	–
[9], 4.1 nM	3.48	–
[9], 12.3 nM	1.19	–
[9], 37 nM	0.943	–
[9], 111.1 nM	1.13	–
[9], 333.3 nM	0.621	–
[9], 1000 nM	0.627	–
[9], 3000 nM	0.693	–
[10], 4.1 nM	0.928	–
[10], 12.3 nM	1.13	–
[10], 37 nM	1.26	–
[10], 111.1 nM	0.901	–
[10], 333.3 nM	0.775	–
[10], 1000 nM	1.21	–
[10], 3000 nM	1.55	–
[11], 4.1 nM	0.989	–
[11], 12.3 nM	0.918	–
[11], 37 nM	0.681	–
[11], 111.1 nM	0.66	–
[11], 333.3 nM	0.538	–
[11], 1000 nM	0.74	–
[11], 3000 nM	1.04	–
[12], 4.1 nM	0.818	–
[12], 12.3 nM	0.955	–
[12], 37 nM	1.02	–
[12], 111.1 nM	0.782	–
[12], 333.3 nM	0.838	–
[12], 1000 nM	0.811	–
[12], 3000 nM	0.874	–
[13], 4.1 nM	0.618	–
[13], 12.3 nM	0.582	–
[13], 37 nM	0.585	–
[13], 111.1 nM	0.446	–
[13], 333.3 nM	0.744	–
[13], 1000 nM	0.529	–
[13], 3000 nM	0.786	–
[14], 4.1 nM	0.889	–
[14], 12.3 nM	2.05	–
[14], 37 nM	1.22	–
[14], 111.1 nM	3.24	–
[14], 333.3 nM	0.832	–
[14], 1000 nM	0.844	–
[14], 3000 nM	1.47	–

CC(=O)O[C@H]1C[C@H](O[C@H]2[C@@H](O)C[C@H](O[C@H]3[C@@H](O)C[C@H](O[C@H]4CC[C@@]5(C)[C@H](CC[C@@H]6[C@@H]5C[C@@H](O)[C@]5(C)[C@@H](C7=CC(=O)OC7)CC[C@]65O)C4)O[C@@H]3C)O[C@@H]2C)O[C@H](C)[C@H]1O[C@@H]1O[C@H](CO)[C@@H](O)[C@H](O)[C@H]1O [Lanatoside C]
Conditions	phenotypic distance	surviving fraction
[1], 4.1 nM	–	0.829
[1], 12.3 nM	–	0.52
[1], 37 nM	–	0.513
[1], 111.1 nM	–	0.347
[1], 333.3 nM	–	0.287
[1], 1000 nM	–	0.214
[1], 3000 nM	–	0.241
[2], 4.1 nM	–	0.887
[2], 12.3 nM	–	0.769
[2], 37 nM	–	0.597
[2], 111.1 nM	–	0.56
[2], 333.3 nM	–	0.543
[2], 1000 nM	–	0.397
[2], 3000 nM	–	0.276
[3], 4.1 nM	–	0.864
[3], 12.3 nM	–	0.807
[3], 37 nM	–	0.625
[3], 111.1 nM	–	0.57
[3], 333.3 nM	–	0.505
[3], 1000 nM	–	0.394
[3], 3000 nM	–	0.449
[4], 4.1 nM	–	1.03
[4], 12.3 nM	–	0.615
[4], 37 nM	–	0.371
[4], 111.1 nM	–	0.238
[4], 333.3 nM	–	0.217
[4], 1000 nM	–	0.177
[4], 3000 nM	–	0.152
[5], 4.1 nM	–	1.26
[5], 12.3 nM	–	0.646
[5], 37 nM	–	0.564
[5], 111.1 nM	–	0.398
[5], 333.3 nM	–	0.413
[5], 1000 nM	–	0.35
[5], 3000 nM	–	0.326
[6], 4.1 nM	–	0.646
[6], 12.3 nM	–	0.373
[6], 37 nM	–	0.344
[6], 111.1 nM	–	0.349
[6], 333.3 nM	–	0.268
[6], 1000 nM	–	0.273
[6], 3000 nM	–	0.245
[7], 4.1 nM	–	0.642
[7], 12.3 nM	–	0.545
[7], 37 nM	–	0.622
[7], 111.1 nM	–	0.554
[7], 333.3 nM	–	0.66
[7], 1000 nM	–	0.627
[7], 3000 nM	–	0.592
[8], 4.1 nM	2.87	–
[8], 12.3 nM	3.93	–
[8], 37 nM	4.41	–
[8], 111.1 nM	6.06	–
[8], 333.3 nM	7.08	–
[8], 1000 nM	6.66	–
[8], 3000 nM	6.83	–
[9], 4.1 nM	1.29	–
[9], 12.3 nM	2.98	–
[9], 37 nM	3.49	–
[9], 111.1 nM	4.28	–
[9], 333.3 nM	3.87	–
[9], 1000 nM	3.82	–
[9], 3000 nM	5.11	–
[10], 4.1 nM	1.18	–
[10], 12.3 nM	1.82	–
[10], 37 nM	2.35	–
[10], 111.1 nM	3.35	–
[10], 333.3 nM	3.21	–
[10], 1000 nM	3.17	–
[10], 3000 nM	3.73	–
[11], 4.1 nM	2.85	–
[11], 12.3 nM	4.99	–
[11], 37 nM	6.18	–
[11], 111.1 nM	7.2	–
[11], 333.3 nM	6.8	–
[11], 1000 nM	6.87	–
[11], 3000 nM	7.11	–
[12], 4.1 nM	2.01	–
[12], 12.3 nM	3.33	–
[12], 37 nM	4.72	–
[12], 111.1 nM	5.61	–
[12], 333.3 nM	4.79	–
[12], 1000 nM	4.62	–
[12], 3000 nM	5.53	–
[13], 4.1 nM	3.23	–
[13], 12.3 nM	4.4	–
[13], 37 nM	4.8	–
[13], 111.1 nM	5.94	–
[13], 333.3 nM	6.29	–
[13], 1000 nM	6.53	–
[13], 3000 nM	6.35	–
[14], 4.1 nM	3.36	–
[14], 12.3 nM	3.52	–
[14], 37 nM	3.89	–
[14], 111.1 nM	3.72	–
[14], 333.3 nM	3.47	–
[14], 1000 nM	3.7	–
[14], 3000 nM	3.74	–

Clc1ccc(CSC(Cn2ccnc2)c2ccc(Cl)cc2Cl)cc1 (centres undefined) [Sulconazole nitrate]
Conditions	phenotypic distance	surviving fraction
[1], 4.1 nM	–	0.956
[1], 12.3 nM	–	1.01
[1], 37 nM	–	1.03
[1], 111.1 nM	–	0.956
[1], 333.3 nM	–	0.962
[1], 1000 nM	–	0.952
[1], 3000 nM	–	0.859
[2], 4.1 nM	–	0.824
[2], 12.3 nM	–	1.02
[2], 37 nM	–	0.954
[2], 111.1 nM	–	0.957
[2], 333.3 nM	–	0.909
[2], 1000 nM	–	0.932
[2], 3000 nM	–	0.766
[3], 4.1 nM	–	0.969
[3], 12.3 nM	–	0.978
[3], 37 nM	–	0.902
[3], 111.1 nM	–	0.886
[3], 333.3 nM	–	0.956
[3], 1000 nM	–	0.917
[3], 3000 nM	–	0.839
[4], 4.1 nM	–	0.975
[4], 12.3 nM	–	0.945
[4], 37 nM	–	0.995
[4], 111.1 nM	–	0.972
[4], 333.3 nM	–	1.07
[4], 1000 nM	–	1.03
[4], 3000 nM	–	0.934
[5], 4.1 nM	–	0.929
[5], 12.3 nM	–	0.922
[5], 37 nM	–	1.01
[5], 111.1 nM	–	1.02
[5], 333.3 nM	–	0.984
[5], 1000 nM	–	1.09
[5], 3000 nM	–	1.17
[6], 4.1 nM	–	0.897
[6], 12.3 nM	–	0.833
[6], 37 nM	–	0.964
[6], 111.1 nM	–	0.887
[6], 333.3 nM	–	0.841
[6], 1000 nM	–	0.82
[6], 3000 nM	–	0.799
[7], 4.1 nM	–	0.831
[7], 12.3 nM	–	1.03
[7], 37 nM	–	0.945
[7], 111.1 nM	–	0.801
[7], 333.3 nM	–	0.934
[7], 1000 nM	–	0.869
[7], 3000 nM	–	0.734
[8], 4.1 nM	0.971	–
[8], 12.3 nM	4.31	–
[8], 37 nM	0.531	–
[8], 111.1 nM	0.857	–
[8], 333.3 nM	1.11	–
[8], 1000 nM	0.859	–
[8], 3000 nM	1.68	–
[9], 4.1 nM	1.17	–
[9], 12.3 nM	0.4	–
[9], 37 nM	0.413	–
[9], 111.1 nM	0.586	–
[9], 333.3 nM	0.864	–
[9], 1000 nM	0.895	–
[9], 3000 nM	1.02	–
[10], 4.1 nM	0.745	–
[10], 12.3 nM	0.557	–
[10], 37 nM	0.545	–
[10], 111.1 nM	0.553	–
[10], 333.3 nM	0.469	–
[10], 1000 nM	0.567	–
[10], 3000 nM	0.697	–
[11], 4.1 nM	0.709	–
[11], 12.3 nM	0.952	–
[11], 37 nM	0.398	–
[11], 111.1 nM	0.55	–
[11], 333.3 nM	0.671	–
[11], 1000 nM	0.779	–
[11], 3000 nM	1.99	–
[12], 4.1 nM	0.532	–
[12], 12.3 nM	0.425	–
[12], 37 nM	0.596	–
[12], 111.1 nM	0.731	–
[12], 333.3 nM	1.14	–
[12], 1000 nM	1.17	–
[12], 3000 nM	1.4	–
[13], 4.1 nM	0.507	–
[13], 12.3 nM	0.659	–
[13], 37 nM	0.68	–
[13], 111.1 nM	0.822	–
[13], 333.3 nM	1.02	–
[13], 1000 nM	1.17	–
[13], 3000 nM	0.957	–
[14], 4.1 nM	0.821	–
[14], 12.3 nM	0.617	–
[14], 37 nM	0.893	–
[14], 111.1 nM	0.999	–
[14], 333.3 nM	1.06	–
[14], 1000 nM	0.92	–
[14], 3000 nM	1.39	–
